Measured values published in the NIST ThermoML archive (doi:10.1021/je060419q).

Conditions: Transpiration method

CC(CO)CO [2-methyl-1,3-propanediol]
Liquid
Conditions	vapor or sublimation pressure [kPa]
297.3 K	0.00204
300.4 K	0.00285
303.4 K	0.00364
306.4 K	0.0049
309.4 K	0.00661
312.4 K	0.00841
312.5 K	0.00861
314.5 K	0.00996
316.4 K	0.01205
318.5 K	0.0141
319.5 K	0.01551
321.4 K	0.01842
322.5 K	0.01984
323.5 K	0.02169
323.6 K	0.02202
326.4 K	0.02689
326.6 K	0.02817
328.5 K	0.03259
328.6 K	0.03396
331.4 K	0.04115
333.4 K	0.0469
336.3 K	0.05931
338.6 K	0.07262
341.4 K	0.08656
342.6 K	0.09448
343.5 K	0.1068
347.6 K	0.1379
349.3 K	0.1589
352.5 K	0.1921
355.4 K	0.2407
357.5 K	0.2643

CC(O)CCO (stereo not drawn) [1,3-butanediol]
Liquid
Conditions	vapor or sublimation pressure [kPa]
288.3 K	0.00139
290.3 K	0.00168
292.9 K	0.00235
303.5 K	0.00651
308.3 K	0.00994
311.3 K	0.01301
314.3 K	0.01723
317.3 K	0.02182
320.3 K	0.02852
323.3 K	0.03664
326.3 K	0.04618
329.3 K	0.05855
332.3 K	0.07427

CC(O)CC(C)(C)O (stereo not drawn) [2-methyl-2,4-pentanediol]
Liquid
Conditions	vapor or sublimation pressure [kPa]
285.2 K	0.0025
287.9 K	0.00333
291.2 K	0.00474
294.2 K	0.00648
297.2 K	0.00858
300.2 K	0.01147
303.2 K	0.01471
306.5 K	0.01997
309.4 K	0.02565
312.5 K	0.03274
315.2 K	0.04092
318.2 K	0.05208
321.2 K	0.06475
323.3 K	0.07752
326.3 K	0.09448
329.4 K	0.1239

CC(O)CC(C)O (stereo not drawn) [2,4-pentanediol]
Liquid
Conditions	vapor or sublimation pressure [kPa]
297.2 K	0.0048
300.2 K	0.00645
303.2 K	0.0085
306.2 K	0.0111
309.2 K	0.01453
312.2 K	0.01892
315.3 K	0.0239
318.4 K	0.03119
321.4 K	0.04095
324.4 K	0.05507
327.5 K	0.07024
330.5 K	0.08735
333.4 K	0.1096
336.5 K	0.1376
339.2 K	0.1648
344.4 K	0.2419
347.3 K	0.2929

CC(C)(CO)CO [2,2-dimethyl-1,3-propanediol]
Conditions	vapor or sublimation pressure [kPa]
283.9 K, Crystal 2	0.00029
288.5 K, Crystal 2	0.00052
291.2 K, Crystal 2	0.00074
295.2 K, Crystal 2	0.00119
298.4 K, Crystal 2	0.00174
301.7 K, Crystal 2	0.00261
304.7 K, Crystal 2	0.00367
307.9 K, Crystal 2	0.00535
309.4 K, Crystal 2	0.00615
311.3 K, Crystal 2	0.00735
314.3 K, Crystal 1	0.01057
317.3 K, Crystal 1	0.01416
320.2 K, Crystal 1	0.01849
323.4 K, Crystal 1	0.02447
326.4 K, Crystal 1	0.03147
329.4 K, Crystal 1	0.04056
332.3 K, Crystal 1	0.05153
335.3 K, Crystal 1	0.06721
338.2 K, Crystal 1	0.08442
341.2 K, Crystal 1	0.1056
344.2 K, Crystal 1	0.1314
347.2 K, Crystal 1	0.1654

OCCCO [propan-1,3-diol]
Liquid
Conditions	vapor or sublimation pressure [kPa]
293.5 K	0.00186
303.2 K	0.00447
309.3 K	0.00788
312.2 K	0.00997
315.3 K	0.01329
318.4 K	0.01659
321.3 K	0.02168
324.3 K	0.02764
327.3 K	0.03558
330.3 K	0.04372
333.5 K	0.05556
336.4 K	0.06842
339.4 K	0.08464
342.3 K	0.1053
